The results in this text go back to patent US9255101B2 (BIOPROJECT, priority 2012, dated 2016).

In data set [1] the target is T1, human H4 receptor (Homo sapiens, UniProt Q9H3N8). Kind of data set: biochemical.
Data set [2] deals with T1, human H4 receptor. Description: biochemical. The source holds these as a separate data set.

pIC50, pKi: −log10 of the molar value. Where a name gives a salt, the structure may show the parent alone. A value given as a limit tells only on which side of the number the result lay.
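For pIC50 in this document: membranes from SH-SY5Y cells with stable human H4 receptor expression, incubated with GDP 10 µM, radioactivity retained on filters counted by liquid scintillation.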
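For pKi in this document: radioligand displacement of a [3H]-labelled ligand from membranes of CHO cells stably expressing human H4 receptor, bound radioactivity counted on filters by liquid scintillation.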

T1 sequence (Q9H3N8 whole entry): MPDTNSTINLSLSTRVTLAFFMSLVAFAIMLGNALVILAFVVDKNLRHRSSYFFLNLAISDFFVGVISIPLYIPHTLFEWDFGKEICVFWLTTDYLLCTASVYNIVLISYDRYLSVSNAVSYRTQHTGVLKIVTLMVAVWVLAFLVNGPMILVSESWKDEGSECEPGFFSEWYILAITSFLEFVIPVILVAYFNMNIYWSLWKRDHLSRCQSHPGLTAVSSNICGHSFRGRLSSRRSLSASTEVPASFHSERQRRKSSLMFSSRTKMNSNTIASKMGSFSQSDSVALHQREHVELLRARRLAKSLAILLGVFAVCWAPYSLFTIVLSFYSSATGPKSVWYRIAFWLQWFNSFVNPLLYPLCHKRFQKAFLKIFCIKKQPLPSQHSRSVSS

For the molecule `CN1CCC(OC2c3ccccc3CCn3cc(I)nc32)CC1` (centres unmarked) [Example 2, 2-iodo-4-(1-methylpiperidin-4-yloxy)-9,10-dihydro-4H-3,10a-diaza-benzo[f]azulene], the melting point turned out to be 126 °C. Besides, the pKi in data set [1] is more than 6.52. In the same order, the values of `CN1CCC(OC2c3ccccc3CCn3c(I)cnc32)CC1` (centres unmarked) [Example 3, 1-iodo-4-(1-methylpiperidin-4-yloxy)-9,10-dihydro-4H-3,10a-diaza-benzo[f]azulene] are 163 °C and more than 6.52. In the same order, the values of `CN1CC(COC2c3ccccc3CCn3cc(I)nc32)C1` (centres unmarked) [Example 7, 2-Iodo-4-(1-methylazetidin-3-ylmethoxy)-9,10-dihydro-4H-3,10a-diaza-benzo[f]azulene] are 100 °C and more than 6.00.

The molecule `CN1CCC(OC2c3ccccc3CCn3cc(-c4ccc(N)cc4)nc32)CC1` (centres unmarked) [Example 16, 4-[4-(1-methylpiperidin-4-yloxy)-9,10-dihydro-4H-3,10a-diaza-benzo[f]azulen-2-yl]-phenylamine] showed a melting point of 197 °C. In addition, the pKi in data set [1] is more than 6.00.

For the molecule `CN1CCC(OC2c3ccccc3CCn3cc(-c4ccc(NC(=O)C(C)(C)C)cc4)nc32)CC1` (centres unmarked) [Example 58, 2,2-dimethyl-N-{4-[4-(1-methylpiperidin-4-yloxy)-9,10-dihydro-4H-3,10a-diaza-benzo[f]azulen-2-yl]-phenyl}-propionamide], the melting point came out at 120 °C. The molecule further showed a pKi in data set [1] of more than 6.52.

`CCCNC(=O)Nc1ccc(-c2cn3c(n2)C(OC2CCN(C)CC2)c2ccccc2CC3)cc1` (centres unmarked) [Example 60, 1-{4-[4-(1-methylpiperidin-4-yloxy)-9,10-dihydro-4H-3,10a-diaza-benzo[f]azulen-2-yl]-phenyl}-3-propyl-urea] returned a melting point of 130 °C. The molecule also showed a pKi in data set [1] of more than 6.52. `Cc1c(-c2ccc(N3CCOC3=O)cc2)nc2n1CCc1ccccc1C2OC1CCN(C)CC1` (centres unmarked) [Example 131, 3-{4-[1-methyl-4-(1-methylpiperidin-4-yloxy)-9,10-dihydro-4H-3,10a-diaza-benzo[f]azulen-2-yl]-phenyl}-oxazolidin-2-one] returned a melting point of 214 °C. Moreover, the pKi in data set [1] was more than 6.52. The molecule `Cc1c(I)nc2n1CCc1ccccc1C2OC1CCN(C)CC1` (centres unmarked) [Example 133, 2-iodo-1-methyl-4-(1-methylpiperidin-4-yloxy)-9,10-dihydro-4H-3,10a-diaza-benzo[f]azulene] yielded a melting point of 59 °C. The pKi in data set [1] was more than 6.52. `Cc1c(-c2ccsc2)nc2n1CCc1ccccc1C2OC1CCN(C)CC1` (centres unmarked) [Example 148, 1-methyl-4-(1-methylpiperidin-4-yloxy)-2-thiophen-3-yl-9,10-dihydro-4H-3,10a-diaza-benzo[f]azulene] gave a melting point of 74 °C. This molecule also showed a pKi in data set [1] of more than 7.52. In turn, `COc1ccccc1-c1nc2n(c1C)CCc1ccccc1C2OC1CCN(C)CC1` (centres unmarked) [Example 149, 2-(2-methoxyphenyl)-1-methyl-4-(1-methylpiperidin-4-yloxy)-9,10-dihydro-4H-3,10a-diaza-benzo[f]azulene] registered a melting point of 139 °C. In addition, in data set [1], the pKi is more than 6.52. `Cc1c(-c2ccc(F)cc2)nc2n1CCc1ccccc1C2OC1CCN(C)CC1` (centres unmarked) [Example 154, 2-(4-fluorophenyl)-1-methyl-4-(1-methylpiperidin-4-yloxy)-9,10-dihydro-4H-3,10a-diaza-benzo[f]azulene] registered a melting point of 168 °C. In data set [1], the pKi is more than 7.52. Molecule `Cc1c(-c2ccc(Cl)cc2)nc2n1CCc1ccccc1C2OC1CCN(C)CC1` (centres unmarked) [Example 155, 2-(4-chlorophenyl)-1-methyl-4-(1-methylpiperidin-4-yloxy)-9,10-dihydro-4H-3,10a-diaza-benzo[f]azulene] gave a melting point of 158 °C. The pKi in data set [1] is more than 7.52.

In turn, `Cc1ccc(-c2nc3n(c2C)CCc2ccccc2C3OC2CCN(C)CC2)c(Cl)c1` (centres unmarked) [Example 157, 2-(2-chloro-4-methylphenyl)-1-methyl-4-(1-methylpiperidin-4-yloxy)-9,10-dihydro-4H-3,10a-diaza-benzo[f]azulene] yielded a melting point of 133 °C. Also, in data set [1], the pKi is more than 7.52. Turning to `Cc1c(-c2ccc(C=CS(C)(=O)=O)cc2)nc2n1CCc1ccccc1C2OC1CCN(C)CC1` (centres unmarked) [Example 158, 2-[4-(2-methanesulfonyl-vinyl)-phenyl]-1-methyl-4-(1-methylpiperidin-4-yloxy)-9,10-dihydro-4H-3,10a-diaza-benzo[f]azulene], the pKi in data set [1] was more than 7.52. This molecule had a pIC50 in data set [2] of more than 7.52. In turn, `Cc1c(-c2ccc(SCCN)cc2)nc2n1CCc1ccccc1C2OC1CCN(C)CC1` (centres unmarked) [Example 161, 2-{4-[1-methyl-4-(1-methylpiperidin-4-yloxy)-9,10-dihydro-4H-3,10a-diaza-benzo[f]azulen-2-yl]-phenylsulfanyl}-ethylamine oxalate] showed a negative-log Ki (pKi) in data set [1] of more than 7.52. Moreover, the pIC50 in data set [2] is more than 7.52. Regarding `CC(=O)NCCSc1ccc(-c2nc3n(c2C)CCc2ccccc2C3OC2CCN(C)CC2)cc1` (centres unmarked) [Example 163, N-(2-{4-[1-methyl-4-(1-methylpiperidin-4-yloxy)-9,10-dihydro-4H-3,10a-diaza-benzo[f]azulen-2-yl]-phenylsulfanyl}-ethyl)-acetamide oxalate], in data set [1], the pKi is more than 7.52. The same molecule had a pIC50 in data set [2] of more than 7.52. `Cc1c(-c2ccc(SCc3ccccc3)cc2)nc2n1CCc1ccccc1C2OC1CCN(C)CC1` (centres unmarked) [Example 164, 2-(4-benzylsulfanylphenyl)-1-methyl-4-(1-methylpiperidin-4-yloxy)-9,10-dihydro-4H-3,10a-diaza-benzo[f]azulene oxalate] showed a pKi in data set [1] of more than 7.52. The same molecule gave a negative-log IC50 (pIC50) in data set [2] of more than 7.52. In turn, `Cc1c(-c2ccc(SCc3ccco3)cc2)nc2n1CCc1ccccc1C2OC1CCN(C)CC1` (centres unmarked) [Example 167, 2-[4-(furan-2-ylmethylsulfanyl)-phenyl]-1-methyl-4-(1-methylpiperidin-4-yloxy)-9,10-dihydro-4H-3,10a-diaza-benzo[f]azulene oxalate] gave a pKi in data set [1] of more than 7.52. Moreover, the pIC50 in data set [2] was more than 7.52.

Turning to `Cc1c(-c2ccc(C3=CCN(C(=O)OC(C)(C)C)CC3)cc2)nc2n1CCc1ccccc1C2OC1CCN(C)CC1` (centres unmarked) [Example 168, 4-{4-[1-methyl-4-(1-methyl-piperidin-4-yloxy)-9,10-dihydro-4H-3,10a-diaza-benzo[f]azulen-2-yl]-phenyl}-3,6-dihydro-2H-pyridine-1-carboxylic acid tert-butyl ester], the melting point was 171 °C. Also, the pKi in data set [1] was more than 7.52.

For `CN1CCC(OC2c3ccccc3CCn3cc(-c4ccc(CN5CCCCCC5=O)cc4)nc32)CC1` (centres unmarked) [Example 188, 1-{4-[4-(1-methylpiperidin-4-yloxy)-9,10-dihydro-4H-3,10a-diaza-benzo[f]azulen-2-yl]benzyl}-azepan-2-one], the pKi in data set [1] was more than 6.52. In addition, in data set [2], the pIC50 is more than 6.52. Turning to `Cc1c(C(O)c2ccccc2)nc2n1CCc1ccccc1C2OC1CCN(C)CC1.O=CO` (centres unmarked) [Example 201, [1-methyl-4-(1-methylpiperidin-4-yloxy)-9,10-dihydro-4H-3,10a-diaza-benzo[f]azulen-2-yl]phenylmethanol, formic acid salt], the melting point was found to be 85 °C. Further, the pKi in data set [1] was more than 6.00. For `Cc1c(C(=O)c2ccccc2)nc2n1CCc1ccccc1C2OC1CCN(C)CC1.O=CO` (centres unmarked) [Example 202, [1-methyl-4-(1-methylpiperidin-4-yloxy)-9,10-dihydro-4H-3,10a-diaza-benzo[f]azulen-2-yl]phenylmethanone, formic acid salt], in that order: 71 °C and more than 6.00. As for `Cc1c(-c2ccc(NC(=S)NC(C)C)cc2)nc2n1CCc1ccccc1C2OC1CCN(C)CC1` (centres unmarked) [Example 206, 1-isopropyl-3-{4-[1-methyl-4-(1-methylpiperidin-4-yloxy)-9,10-dihydro-4H-3,10a-diazabenzo[f]azulen-2-yl]-phenyl}-thiourea], the pKi in data set [1] was more than 7.52. This molecule had a negative-log IC50 (pIC50) in data set [2] of more than 7.52. In data set [1], `CN1CCC(OC2c3ccccc3CCn3c2nc(I)c3I)CC1` (centres unmarked) [Example 219, 1,2-diiodo-4-(1-methylpiperidin-4-yloxy)-9,10-dihydro-4H-3,10a-diaza-benzo[f]azulene] had a negative-log Ki (pKi) of more than 7.52. In addition, the pIC50 in data set [2] was more than 7.52.

Regarding `Cc1c(C(=O)NCc2ccccc2)nc2n1CCc1ccccc1C2OC1CCN(C)CC1` (centres unmarked) [Example 222, 1-methyl-4-(1-methylpiperidin-4-yloxy)-9,10-dihydro-4H-3,10a-diaza-benzo[f]azulene-2-carboxylic acid benzylamide], the melting point is 161 °C. As for `Cc1c(C=CC(C)(C)C)nc2n1CCc1ccccc1C2OC1CCN(C)CC1` (centres unmarked) [Example 225, 2-(3,3-dimethyl-but-1-enyl)-1-methyl-4-(1-methylpiperidin-4-yloxy)-9,10-dihydro-4H-3,10a-diaza-benzo[f]azulene], the pKi in data set [1] is more than 7.52. The same molecule showed a negative logarithm of the IC50 (pIC50) in data set [2] of more than 7.52.

For the molecule `Cc1c(C2=CCCCC2)nc2n1CCc1ccccc1C2OC1CCN(C)CC1` (centres unmarked) [Example 226, 2-cyclohex-1-enyl-1-methyl-4-(1-methylpiperidin-4-yloxy)-9,10-dihydro-4H-3,10a-diaza-benzo[f]azulene], in data set [1], the pKi was more than 7.52. Further, the pIC50 in data set [2] is more than 7.52. Take `CN1CCC(OC2c3ccccc3CCn3c2nc(-c2ccccc2)c3C(N)=O)CC1` (centres unmarked) [Example 254, 4-(1-methylpiperidin-4-yloxy)-2-phenyl-9,10-dihydro-4H-3,10a-diaza-benzo[f]azulene-1-carboxylic acid amide]: the pKi in data set [1] is more than 6.52. Further, the pIC50 in data set [2] is more than 6.52. `CN1CCC(OC2c3ccccc3CCn3c2nc(-c2ccccc2)c3C(F)(F)F)CC1` (centres unmarked) [Example 255, 4-(1-methylpiperidin-4-yloxy)-2-phenyl-1-trifluoromethyl-9,10-dihydro-4H-3,10a-diaza-benzo[f]azulene]: in data set [1], the pKi was more than 7.52. Besides, the negative-log IC50 (pIC50) in data set [2] was more than 6.52. For `C=C(C)Cc1nc2n(c1C#N)CCc1ccccc1C2OC1CCN(C)CC1` (centres unmarked) [Example 259, 2-(2-methylallyl)-4-(1-methylpiperidin-4-yloxy)-9,10-dihydro-4H-3,10a-diaza-benzo[f]azulene-1-carbonitrile], in that order: more than 6.52 and more than 6.52.

In general, melting point refers to the temperature of the solid-liquid transition. Broadly, the pKi is the negative decadic logarithm of the Ki, by convention in mol/L. By pIC50 is commonly meant the negative decadic logarithm of the IC50, by convention in mol/L. A low value points to a high IC50.
